Test results reported in PubChem BioAssay (NCI).
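Five concentrations, 48 hours, 96-well plates. Here, GI50 denotes the concentration required for 50% inhibition of growth. TGI denotes the concentration required for complete inhibition of growth.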

Legend:
Test in all cases: inhibition of tumour cell growth, NCI panel, 48 h
SW-620 colon = test system: SW-620 colon
HCT-15 colon = test system: HCT-15 colon
SF-539 CNS = test system: SF-539 CNS
PC-3 prostate = test system: PC-3 prostate
UACC-257 melanoma = test system: UACC-257 melanoma
SF-268 CNS = test system: SF-268 CNS
HOP-62 NSCLC = test system: HOP-62 NSCLC
IGROV1 ovarian = test system: IGROV1 ovarian
786-0 renal = test system: 786-0 renal
COLO 205 colon = test system: COLO 205 colon

Row | SMILES | GI50 (SW-620 colon) [µM] | TGI (SW-620 colon) [µM] | GI50 (HCT-15 colon) [µM] | TGI (HCT-15 colon) [µM] | GI50 (SF-539 CNS) [µM] | TGI (SF-539 CNS) [µM] | GI50 (PC-3 prostate) [µM] | TGI (PC-3 prostate) [µM] | GI50 (UACC-257 melanoma) [µM] | TGI (UACC-257 melanoma) [µM] | TGI (SF-268 CNS) [µM] | TGI (HOP-62 NSCLC) [µM] | TGI (IGROV1 ovarian) [µM] | TGI (786-0 renal) [µM] | TGI (COLO 205 colon) [µM]
1 | Cc1c(C)c2c(c(C)c1OC(=O)CCC(=O)[O-])CCC(C)(CCCCCCCCCCC[P+](c1ccccc1)(c1ccccc1)c1ccccc1)O2 (stereo not given) | 0.174 | 0.842 | 0.977 | 3.02 | 0.185 | 0.721 | 0.158 | 0.706 | 0.151 | 0.512 | – | – | – | – | –
2 | COc1ccc(CN(CCN(C)C)c2ccccn2)cc1 (tested in a mixture with another compound) | – | > 100 | – | > 100 | – | > 100 | – | – | – | > 100 | > 100 | > 100 | > 100 | > 100 | –
3 | CC(=O)O[C@@H]1[C@H](OC2CCCCC2(c2ccccc2)c2ccccc2)O[N+]([O-])=CC12CCCCC2 (stereo not given in full) | – | 31.6 | – | 30.7 | – | 37.8 | – | 22.6 | – | 32 | 34.6 | – | 41.4 | 26.2 | 33.7
4 | CN(C)c1ccc(/C=C/C(=O)c2cc(C(C)(C)C)c(O)c(C(C)(C)C)c2)cc1 | – | > 100 | – | > 100 | – | 1.8 | – | > 100 | – | – | > 52.1 | > 100 | > 100 | 8.03 | 2.65
5 | COC1(OC)CC2C(=O)N(Cc3ccccc3)C1C(S(=O)(=O)c1ccccc1)C2C(C)S(=O)(=O)c1ccccc1 (stereo not given) | – | > 100 | – | > 100 | – | > 100 | – | – | – | > 100 | > 100 | > 100 | > 100 | > 100 | > 100
6 | CON(C)c1nc(N)c(C#N)c(C#N)c1C#N | – | > 10 | – | > 10 | – | > 10 | – | > 10 | – | – | > 10 | > 10 | > 10 | – | > 10
7 | Cc1ccc(S(=O)(=O)NC(=O)Nc2c(S(N)(=O)=O)cc(S(N)(=O)=O)c(Cl)c2Cl)cc1 | – | > 100 | – | > 100 | – | > 100 | – | > 100 | – | > 100 | > 100 | – | > 100 | > 100 | –
8 | CC(=O)Nc1ccc(NC(=O)CC(=O)Nc2ccc(NC(C)=O)cc2)cc1 | – | > 100 | – | 61.9 | – | > 100 | – | > 100 | – | > 100 | > 100 | – | > 100 | > 100 | > 100
9 | CC1(CO)C(O)CCC2(C)C1CCC1CC3CC12CCC3(O)CO (stereo not given) | – | > 100 | – | > 100 | – | > 44.5 | – | – | – | > 100 | > 100 | – | > 100 | – | > 100
10 | CC(=O)Nc1ccc(-c2nnc(SCC(=O)Nc3cccc(C)c3)o2)cc1 | – | 25.4 | – | 21.6 | – | 27.8 | – | – | – | 24.9 | > 100 | 73.2 | 24.7 | 26.4 | 28
11 | CCC(=O)OC1CCn2c1nc1c2C(=O)C(C)=C(NC(C)=O)C1=O (stereo not given) | – | 2.93 | – | – | – | 3.21 | – | – | – | 3.15 | 3.2 | 24.1 | 3.98 | 11.9 | 11.6
12 | CN1C(=O)N(C)C2(CCN(CC(CC3OCCO3)c3ccc(F)cc3)CC2)C1=O (stereo not given) | – | – | – | > 100 | – | > 100 | – | > 100 | – | > 100 | > 100 | > 100 | > 100 | > 100 | > 100
13 | O=C1CC(c2ccc(Cl)cc2)C2(C(=O)NC(=S)NC2=O)C(c2ccc(Cl)cc2)C1 (stereo not given) | – | 44.7 | – | 52.8 | – | 40.9 | – | 55.1 | – | 37.6 | 31.9 | 54.7 | – | > 100 | 30.6
14 | C[N+]1=C(c2cccnc2/C=N/O)OCC1(C)C | – | > 100 | – | > 100 | – | > 100 | – | – | – | > 100 | > 100 | > 100 | > 100 | > 100 | > 100
15 | CC(=O)c1ccc(N2C(=O)C3c4[nH]c5ccccc5c4C4CCC(C(C)(C)C)CC4C3C2=O)cc1 (stereo not given) | – | 54.3 | – | 92.8 | – | 46.1 | – | – | – | > 100 | 36.7 | 38.5 | > 100 | 34.3 | 29.1
16 | c1ccc(-c2csc3c2-n2cccc2C3N2CCCC2)cc1 (stereo not given) | – | > 100 | – | > 100 | – | > 100 | – | > 100 | – | 39.9 | 78.7 | > 100 | > 100 | > 100 | –
17 | COC(=O)[C@H](CNC(=O)/C=C/c1ccc(OC(C)=O)c(OC(C)=O)c1)NC(=O)/C=C/c1ccc(OC(C)=O)c(OC(C)=O)c1 | – | > 100 | – | > 100 | – | > 100 | – | > 100 | – | > 100 | – | > 100 | > 100 | > 100 | > 100
18 | Cc1ccc2nc(N)[nH]c(=O)c2c1Sc1ccncc1 | – | > 100 | – | > 100 | – | > 100 | – | – | – | > 100 | > 100 | > 100 | > 100 | > 100 | > 100
19 | O=c1oc2ccc([N+](=O)[O-])cc2nc1/C=C(\O)c1ccccc1 | – | > 100 | – | > 100 | – | – | – | > 100 | – | > 100 | > 100 | > 100 | > 100 | > 100 | > 100
20 | CCOC(=O)/C=C/n1c2ccccc2c(=O)c2cc(OC)ccc21 | – | – | – | > 100 | – | > 100 | – | – | – | > 100 | > 100 | > 100 | > 100 | > 100 | > 100
21 | Cc1ccc(S(=O)(=O)NC(=O)C2S(=O)(=O)OCCOS2(=O)=O)cc1 | – | > 100 | – | – | – | > 100 | – | – | – | > 100 | > 100 | > 100 | – | > 100 | > 100
22 | O=C1NC(=O)C(C(=O)C(=O)Nc2cc(Cl)ccc2Cl)C(=O)N1 | – | > 100 | – | > 100 | – | > 100 | – | – | – | > 100 | > 100 | > 100 | > 100 | > 100 | > 100
